Test results: US10131673B2, “Piperidine substituted tricyclic pyrazolo[1,5-a]pyrimidine derivatives with inhibitory activity on the replication of the respiratory syncytial virus (RSV)” (priority 2014, dated 2018)

Columns and labels:
rgRSV224 virus = test: microbe, parasite or virus in culture; assay type: cell-based, respiratory syncytial virus (RSV); conditions: human respiratory syncytial virus, HeLa, 72 h, read-out: RSV HELA pEC50 (converted)

Experimental for HeLa cells: Black 384-well clear-bottom microtiter plates (Corning, Amsterdam, The Netherlands) were filled via acoustic drop ejection using the echo liquid handler (Labcyte, Sunnyvale, Calif.). 200 nL of compound stock solutions (100% DMSO) were transferred to the assay plates. 9 serial 4-fold dilutions of compound were made, creating per quadrant the same compound concentration. The assay was initiated by adding 10 μL of culture medium to each well (RPMI medium without phenol red, 10% FBS-heat inactivated, 0.04% gentamycin (50 mg/mL). All addition steps are done by using a multidrop dispenser (Thermo Scientific, Erembodegem, Belgium). Next, rgRSV224 virus (MOI=1) diluted in culture medium was added to the plates. rgRSV224 virus is an engineered virus that includes an additional GFP gene (Hallak L K, Spillmann D, Collins P L, Peeples M E. Glycosaminoglycan sulfation requirements for respiratory syncytial virus infection; Journal of virology (2000), 74(22), 10508-13) and was in-licensed from the NIH (Bethesda, Md., USA). Finally, 20 μL of a HeLa cell suspension (3,000 cells/well) were plated. Medium, virus- and mock-infected controls were included in each test. The wells contain 0.05% DMSO per volume. Cells were incubated at 37° C. in a 5% CO2 atmosphere. Three days post-virus exposure, viral replication was quantified by measuring GFP expression in the cells by an in house developed MSM laser microscope (Tibotec, Beerse, Belgium). The EC50 was defined as the 50% inhibitory concentration for GFP expression. In parallel, compounds were incubated for three days in a set of white 384-well microtiter plates (Corning) and the cytotoxicity of compounds in HeLa cells was determined by measuring the ATP content of the cells using the ATPlite kit (Perkin Elmer, Zaventem, Belgium) according to the manufacturer's instructions. The CC50 was defined as the 50% concentration for cytotoxicity.

Row | Structure (SMILES) | EC50 (rgRSV224 virus) [nM] | TOX HELA pCC50 (HeLa cells)
1 | Cc1ccc(NS(C)(=O)=O)c(C(=O)N2CCCCC2c2cc3nc4c(c(N5CCOCC5)n3n2)COCC4)c1 (stereo not shown) [Compound P34, N-(4-methyl-2-(2-(9-morpholino-6,8-dihydro-5H-pyrano[4,3-d]pyrazolo-[1,5-a]pyrimidin-2-yl)piperidine-1-carbonyl)phenyl)methanesulfonamide] | 20.9 | 4.6
2 | Cc1ccc(NS(C)(=O)=O)c(C(=O)N2CCCCC2c2cc3nc(N(C)C)c4c(n3n2)N(C)CCC4)c1 (stereo not shown) [Compound P27, N-(2-(2-(5-(dimethylamino)-9-methyl-6,7,8,9-tetrahydropyrazolo-[1,5-a]pyrido[3,2-e]pyrimidin-2-yl)piperidine-1-carbonyl)-4-methylphenyl)methane-sulfonamide] | 2.04 | 4.3
3 | FC(F)(F)c1cccc2ncnc(N3CCCCC3c3cc4nc5c(c(N6CCOCC6)n4n3)CCCC5)c12 (stereo not shown) [Compound P11, 4-(2-(1-(5-(trifluoromethyl)quinazolin-4-yl)piperidin-2-yl)-5,6,7,8-tetrahydropyrazolo[5,1-b]quinazolin-9-yl)morpholine] | 676 | 4.7
4 | Cc1ccc(NS(C)(=O)=O)c(C(=O)N2CCCCC2c2cc3nc4c(c(N5CCOCC5)n3n2)COC4)c1 (stereo not shown) [Compound P25, N-(4-methyl-2-(2-(8-morpholino-5,7-dihydrofuro[3,4-d]pyrazolo[1,5-a]-pyrimidin-2-yl)piperidine-1-carbonyl)phenyl)methanesulfonamide] | 468 | 4
5 | Cc1cccc2ncnc(N3CCCCC3c3cc4nc5c(cn4n3)CCCC5)c12 (stereo not shown) [Compound P18, 2-(1-(5-methylquinazolin-4-yl)piperidin-2-yl)-5,6,7,8-tetrahydropyrazolo-[5,1-b]quinazoline] | 3890 | 4.3
6 | Cc1cccc2ncnc(N3CCCCC3c3cc4nc5c(c(N(C)C)n4n3)CCN5C)c12 (stereo not shown) [Compound P42, N,N,5-trimethyl-2-(1-(5-methylquinazolin-4-yl)piperidin-2-yl)-6,7-dihydro-5H-pyrazolo[1,5-a]pyrrolo[2,3-d]pyrimidin-8-amine] | 16.6 | 4.6
7 | Cc1cccc2ncnc(N3CCCCC3c3cc4nc5c(c(N6CCOCC6)n4n3)CCOC5)c12 (stereo not shown) [Compound P29, 2-(1-(5-methylquinazolin-4-yl)piperidin-2-yl)-9-morpholino-7,8-dihydro-5H-pyrano[3,4-d]pyrazolo[1,5-a]pyrimidine] | 3720 | 4
8 | Cc1cccc2ncnc(N3CCCCC3c3cc4nc5c(c(C)n4n3)CCCC5)c12 (stereo not shown) [Compound P35, 9-methyl-2-(1-(5-methylquinazolin-4-yl)piperidin-2-yl)-5,6,7,8-tetrahydropyrazolo[5,1-b]quinazoline] | 776 | 4.6
9 | Cc1cccc2ncnc(N3CCCCC3c3cc4nc5c(c(N6CCOCC6)n4n3)CCCCC5)c12 (stereo not shown) [Compound P24, 4-(2-(1-(5-methylquinazolin-4-yl)piperidin-2-yl)-6,7,8,9-tetrahydro-5H-cyclohepta[d]pyrazolo[1,5-a]pyrimidin-10-yl)morpholine] | 9550 | 4.8
10 | Cc1cccc2nc(NS(C)(=O)=O)nc(N3CCCCC3c3cc4nc5c(c(N6CCOCC6)n4n3)COCC5)c12 (stereo not shown) [Compound P32, N-(5-methyl-4-(2-(9-morpholino-6,8-dihydro-5H-pyrano[4,3-d]pyrazolo-[1,5-a]pyrimidin-2-yl)piperidin-1-yl)quinazolin-2-yl)methanesulfonamide] | 55 | 4
11 | Cc1ccc2nc(Cl)nc(N3CCCCC3c3cc4nc5c(c(N6CCOCC6)n4n3)CCCC5)c2c1 (stereo not shown) [Compound P8, 4-(2-(1-(2-chloro-6-methylquinazolin-4-yl)piperidin-2-yl)-5,6,7,8-tetrahydropyrazolo[5,1-b]quinazolin-9-yl)morpholine] | 162 | 4.5
